From patent publication US4942155A, “Biosynthetic anthracyclines related to daunorubicin” (Farmitalia Carlo Erba S.p.A., priority 1986, dated 1990)
Converted amounts (≈) assume the structure as drawn.

What was measured:
HeLa cells = experiment: In vitro cytotoxicity on cultured HeLa cells; format: cell-based; settings: for IC50: Homo sapiens, exposed for 24 hr then plated, read-out: ID50 (the source's name)
From the text: (§1) The cytotoxic activity of the new anthracyclines, FCE 24366 and FCE 24367 have been tested in vitro on cultured HeLa cells, and P388 leukemia cells sensitive (P 388/S) or resistant (P 388/R) to doxorubicin.
^(a) Cells are exposed to the drugs for 24 hr then plated

P388/S leukemia cells = experiment: In vitro cytotoxicity on P388 leukemia cells sensitive to doxorubicin; format: cell-based; settings: for IC50: Mus musculus, exposed for 48 hr then plated, read-out: ID50 (the source's name)
From the text: as §1
(§2) ^(b) Cells are exposed to the drugs for 48 hr then plated

P388/R leukemia cells = experiment: In vitro cytotoxicity on P388 leukemia cells resistant to doxorubicin; format: cell-based; settings: for IC50: Mus musculus, exposed for 48 hr then plated, read-out: ID50 (the source's name); for activity on P 388/R cell line: cross-resistant to most anthracyclines
From the text: as §1, §2

Gross leukemia = experiment: In vivo activity against Gross leukemia in mice; settings: for Toxic deaths: macroscopic autoptic findings; for MST (T/C %): median survival time, % of untreated controls
Experimental: ^(a) Mice were treated i.v. on day 1 after tumor cell i.v.
^(b) Injected as 1:9 Tween 80:water suspension
(§3) ^(c) Median survival time expressed as percentage of untreated
^(d) Evaluated on the basis of macroscopic autoptic findings.

[1] = tested on: Streptococcus faecalis ATCC 8043; experiment: In vitro MIC, standard tube dilution; format: cell-based; settings: Enterococcus faecalis, ATCC8043
From the text: (§4) The in vitro minimum inhibitory concentration (MIC) of FCE 24366, FCE 24367 and daunorubicin, determined for some microorganism using the standard tube dilution procedure, are reported in Table 4.

Sarcina lutea ATCC 9341 = experiment: In vitro MIC, standard tube dilution; format: cell-based; settings: Micrococcus luteus, ATCC9341
From the text: as §4

[2] = tested on: Proteus morganii ATCC 25830; experiment: In vitro MIC, standard tube dilution; format: cell-based; settings: Morganella morganii, ATCC25830
From the text: as §4

[3] = tested on: Streptococcus pyogenes ATCC 12384; experiment: In vitro MIC, standard tube dilution; format: cell-based; settings: ATCC12384
From the text: as §4

[4] = tested on: Staphylococcus aureus 153; experiment: In vitro MIC, standard tube dilution; format: cell-based
From the text: as §4

[5] = tested on: Escherichia coli ATCC 11303; experiment: In vitro MIC, standard tube dilution; format: cell-based; settings: ATCC11303
From the text: as §4

[6] = tested on: Klebeiella pneumoniae ATCC 10031; experiment: In vitro MIC, standard tube dilution; format: cell-based
From the text: as §4

Escherichia coli 026B6 = experiment: In vitro MIC, standard tube dilution; format: cell-based
From the text: as §4

[7] = tested on: Staphylococcus aureus 209P; experiment: In vitro MIC, standard tube dilution; format: cell-based
From the text: as §4

P388 ascitic leukemia = experiment: In vivo activity against P388 ascitic leukemia in mice; settings: for Toxic deaths: macroscopic autopic findings; for MST (T/C %): median survival time, % of untreated controls; for in vivo activity compared with daunorubicin: P388 ascitic leukemia in mice, at dosage levels several times lower
Experimental: ^(a) Mice were treated i.p. on day 1 after tumor cell inoculation.
^(b) Injected as 1:9 Tween 80:water suspension.
as §3
^(d) Evaluated on the basis of macroscopic autopic findings.

Solubility = format: physicochemical
[8] = Stability in acidic media; format: physicochemical
[9] = acetone, dioxane, N,N-dimethylformamide, N,N-dimethylsulfoxide
[10] = chloroform, dichloromethane, ethyl acetate, lower alcohols
[11] = ethyl ether, n-hexane, petroleum ether and water

## COc1cccc2c1C(=O)c1c(O)c3c(c(O)c1C2=O)C[C@@](O)(C(C)=O)C[C@@H]3O[C@H]1C[C@H](N)[C@H](O)[C@H](C)O1 [Daunorubicin, daunorubicin]
HeLa cells
  IC50: 19 ng/mL (≈ 0.036 µM)
P388/S leukemia cells
  IC50: 9.5 ng/mL (≈ 0.018 µM)
P388/R leukemia cells
  IC50: 0.75 µg/mL (≈ 1.42 µM)
Gross leukemia; 10 mg/Kg i.v. on day 1
  Toxic deaths: 0/9
  MST (T/C %): 183%
Gross leukemia; 15 mg/Kg i.v. on day 1
  Toxic deaths: 0/9
  MST (T/C %): 217%
Gross leukemia; 22.5 mg/Kg i.v. on day 1
  Toxic deaths: 9/9
  MST (T/C %): 83%
[1]
  MIC: > 100 µg/mL
Sarcina lutea ATCC 9341
  MIC: 1.56 µg/mL (≈ 2.96 µM)
[2]
  MIC: > 100 µg/mL
[3]
  MIC: 3.12 µg/mL (≈ 5.91 µM)
[4]
  MIC: 25 µg/mL (≈ 47.4 µM)
[5]
  MIC: 3.12 µg/mL (≈ 5.91 µM)
[6]
  MIC: > 100 µg/mL
Escherichia coli 026B6
  MIC: 6.25 µg/mL (≈ 11.8 µM)
[7]
  MIC: 6.25 µg/mL (≈ 11.8 µM)
P388 ascitic leukemia; 2.9 mg/Kg i.p. on day 1
  Toxic deaths: 0/10
  MST (T/C %): 160%
P388 ascitic leukemia; 4.4 mg/Kg i.p. on day 1
  Toxic deaths: 7/10
  MST (T/C %): 150%

## COc1cccc2c1C(=O)c1c(O)c3c(c(O)c1C2=O)C[C@@](O)(C(C)=O)C[C@@H]3O[C@H]1C[C@@H]2NC(C3C(=O)N(C)C(=O)N(C)C3=O)C(C)OC(CC(C)O)O[C@@H]2[C@H](C)O1 (some centres unmarked) [FCE 24366]
HeLa cells
  cytotoxic dosage level compared with daunorubicin: several times lower than those of daunorubicin
  IC50: 0.09 ng/mL (≈ 0.000111 µM)
P388/S leukemia cells
  cytotoxic dosage level compared with daunorubicin: several times lower than those of daunorubicin
  IC50: 0.036 ng/mL (≈ 4.45e-05 µM)
P388/R leukemia cells
  IC50: 0.0012 µg/mL (≈ 0.00148 µM)
  activity on P 388/R cell line: high activity
Gross leukemia; 0.13 mg/Kg i.v. on day 1
  Toxic deaths: 0/9
  MST (T/C %): 117%
Gross leukemia; 0.20 mg/Kg i.v. on day 1
  Toxic deaths: 0/8
  MST (T/C %): 192%
Gross leukemia; 0.30 mg/Kg i.v. on day 1
  Toxic deaths: 2/9
  MST (T/C %): 150%
Gross leukemia; Gross leukemia in mice
  activity against Gross leukemia compared with daunorubicin: activity comparable with that of daunorubicin at remarkably lower dosages
[1]
  MIC: 12.5 µg/mL (≈ 15.4 µM)
Sarcina lutea ATCC 9341
  MIC: 0.19 µg/mL (≈ 0.235 µM)
[2]
  MIC: 12.5 µg/mL (≈ 15.4 µM)
[3]
  MIC: 3.12 µg/mL (≈ 3.85 µM)
[4]
  MIC: 0.78 µg/mL (≈ 0.963 µM)
[5]
  MIC: 0.39 µg/mL (≈ 0.482 µM)
[6]
  MIC: 0.78 µg/mL (≈ 0.963 µM)
Escherichia coli 026B6
  MIC: 1.56 µg/mL (≈ 1.93 µM)
[7]
  MIC: 0.78 µg/mL (≈ 0.963 µM)
P388 ascitic leukemia; 0.012 mg/Kg i.p. on day 1
  Toxic deaths: 0/10
  MST (T/C %): 130%
P388 ascitic leukemia; 0.025 mg/Kg i.p. on day 1
  Toxic deaths: 0/10
  MST (T/C %): 135%
P388 ascitic leukemia; 0.05 mg/Kg i.p. on day 1
  Toxic deaths: 0/10
  MST (T/C %): 150%
P388 ascitic leukemia; 0.1 mg/Kg i.p. on day 1
  Toxic deaths: 1/10
  MST (T/C %): 165%
P388 ascitic leukemia
  in vivo activity compared with daunorubicin: as active as daunorubicin
Solubility; [9]
  solubility: soluble
Solubility; [10]
  solubility: slightly soluble
Solubility; [11]
  solubility: barely soluble or insoluble
[8]
  stability: unstable

## COc1cccc2c1C(=O)c1c(O)c3c(c(O)c1C2=O)C[C@@](O)(C(C)=O)C[C@@H]3O[C@H]1C[C@@H]2NC(C3C(=O)NC(=S)NC3=O)C(C)OC(CC(C)O)O[C@@H]2[C@H](C)O1 (some centres unmarked) [FCE 24367]
HeLa cells
  cytotoxic dosage level compared with daunorubicin: several times lower than those of daunorubicin
  IC50: 0.7 ng/mL (≈ 0.000877 µM)
P388/S leukemia cells
  cytotoxic dosage level compared with daunorubicin: several times lower than those of daunorubicin
  IC50: 0.003 ng/mL (≈ 3.76e-06 µM)
P388/R leukemia cells
  IC50: 0.0038 µg/mL (≈ 0.00476 µM)
  activity on P 388/R cell line: high activity
[1]
  MIC: 100 µg/mL (≈ 125 µM)
Sarcina lutea ATCC 9341
  MIC: 0.78 µg/mL (≈ 0.978 µM)
[2]
  MIC: 100 µg/mL (≈ 125 µM)
[3]
  MIC: 6.25 µg/mL (≈ 7.83 µM)
[4]
  MIC: 6.25 µg/mL (≈ 7.83 µM)
[5]
  MIC: 3.12 µg/mL (≈ 3.91 µM)
[6]
  MIC: 25 µg/mL (≈ 31.3 µM)
Escherichia coli 026B6
  MIC: 12.5 µg/mL (≈ 15.7 µM)
[7]
  MIC: 6.25 µg/mL (≈ 7.83 µM)
P388 ascitic leukemia; 0.3 mg/Kg i.p. on day 1
  Toxic deaths: 0/10
  MST (T/C %): 145%
P388 ascitic leukemia; 0.45 mg/Kg i.p. on day 1
  Toxic deaths: 1/10
  MST (T/C %): 150%
P388 ascitic leukemia; 0.68 mg/Kg i.p. on day 1
  Toxic deaths: 1/10
  MST (T/C %): 155%
P388 ascitic leukemia
  in vivo activity compared with daunorubicin: as active as daunorubicin
Solubility; [9]
  solubility: soluble
Solubility; [10]
  solubility: slightly soluble
Solubility; [11]
  solubility: barely soluble or insoluble
[8]
  stability: unstable
